Data on 87 compounds can be found in a melting point compilation (Tetko et al.; mined from patent text by program, amines drawn as free bases though some values may be those of a salt).

One may read the melting point as the temperature, or range, at which the solid turns liquid.

Some results are limits rather than exact numbers.

`COc1cc2ncc(C#N)c(Nc3ccc(SC)cc3)c2cc1OC`: the melting point was in the range of 235 to 237 °C.

Compound `O=C(NCCc1ccc([N+](=O)[O-])cc1)Nc1ccc(Nc2ccccc2)cc1` displayed a melting point of 204 to 205 °C.

The compound `CC1CCC(Oc2cc(F)cc(C(=O)Nc3ccc(OCCN4CCOCC4)c4ccccc34)c2)CC1` (configuration not stated) yielded a melting point of 98 to 100 °C.

As for `Clc1cnc(Sc2ccccc2)nc1`, the melting point was found to be 47 °C.

Compound `COC(C)c1nsc2ccc(-n3c(=O)cc(C(F)(F)F)n(C)c3=O)cc12` (configuration not stated) displayed a melting point of 133 to 135 °C.

Take `Cc1cc(-c2nc(-c3c(F)cccc3Cl)nn2C)ccc1-c1ccc(OC(F)(F)F)cc1`: the melting point fell in the range of 117 to 122 °C.

Consider `CCC(=O)Oc1c(OC)cc(C=CC(=O)Nc2cnc3c(C)cc(C)cc3c2-c2ccccc2Cl)cc1OC`, for which the melting point lay in the range of 235 to 236 °C.

With `O=C1C(=O)c2ccccc2C2=C1SCC1(CCN(C(=O)c3cc4ccccc4s3)CC1)O2`, the melting point lay within 110 to 112 °C.

`CC(=O)c1ccc2oc3ccc(C(C)=O)cc3c(=O)c2c1` came in with a melting point of 226 to 228 °C.

`CCn1c2c(c3ccccc31)CCSC2(C)CCN(C)C` (configuration not stated): the melting point lay within 86 to 88 °C.

Compound `CC(C)c1nc(CN(C)C(=O)N[C@H](C(=O)N[C@@H](Cc2ccccc2)C[C@H](O)[C@H](Cc2ccccc2)NC(=O)OCc2cnc(C(C)C)s2)C(C)C)cs1` displayed a melting point of 64 to 66 °C.

Compound `NC1CCCCC1N1CCC(Cc2ccc(Cl)cc2)CC1` (configuration not stated) gave a melting point of 69.1 to 70.4 °C.

Compound `CCCC1(C)CC(C)c2cc(C(C)=O)c(O)c(C)c2O1` (configuration not stated) registered a melting point of 73 °C.

As for `COc1cc(CO)ccc1OCc1nc(N2CCCCC2)sc1C`, the melting point was in the range of 92 to 93 °C.

For `O=C1NCCc2c(OCCCN3CCCCC3)cccc21`, the melting point was in the range of 112 to 114 °C.

Take `CCOC(=O)C1CCn2c1cc(C)c2C(=O)c1ccc2n1CCS2` (configuration not stated): the melting point is 146 to 148 °C.

`CN(c1c(Cl)ccc2cc(-c3ncc(CO)s3)[nH]c12)S(=O)(=O)c1cccs1` came in with a melting point of 214 to 215 °C.

`O=Ic1ccc(Cl)cc1[N+](=O)[O-]` showed a melting point of 118 °C.

`CC(C)Cn1c(=O)n(C)c(=O)c2c(Br)c(C(=O)c3nc4ccccc4n3C)sc21` yielded a melting point of 258 °C.

`COC(=O)NCc1nc(-c2cc(C(C)(C)C)c(O)c(C(C)(C)C)c2)cs1` showed a melting point of 94 to 95.9 °C.

Compound `CCCCOc1ccc(Nc2cc(Nc3ccc4c(c3)OCCO4)c(F)cn2)cc1` registered a melting point of 133 to 135 °C.

On to `COc1cc(CNC(=O)c2ccccc2)cc(OC)c1OC`, for which the melting point fell in the range of 113 to 115 °C.

Regarding `Cc1ccccc1C=CC(=O)C=Cc1ccccc1C`, the melting point is 94 to 96 °C.

Consider `CCCCOCCOc1ccc(-c2ccc3c(c2)C=C(C(=O)Nc2ccc(C/C(=N\O)c4nccn4CCC)cc2)CCN3CC(C)C)cc1`, for which the melting point was 166 to 168 °C.

In turn, `CSc1cc(C)nc(SC)c1NC(=O)CCCCCCSc1nc2ccccc2[nH]1` registered a melting point of 189 to 192 °C.

As for `O=Cc1ncn2c1[C@@H]1CCCN1C(=O)c1c(Cl)cccc1-2`, the melting point is 224 to 225 °C.

Compound `COc1cc2c(I)cn(C)c2cc1OC` gave a melting point of 80 to 90 °C.

On to `CN1CCN(c2ccc(Nc3ncc4cc(C#N)c(=O)n(C5CCCC5)c4n3)cc2)CC1`, for which the melting point is 290 to 292 °C.

Regarding `OC(CNCCc1ccsc1)c1ccccc1` (configuration not stated), the melting point was found to be 75 °C.

On to `CN(C)S(=O)(=O)c1cc(-c2csc(=Nc3ccc(C(F)(F)F)cc3)n2C)ccc1Cl`, for which the melting point was in the range of 147 to 151 °C.

The compound `CC(C)C(NC(=O)OCCN1CCOCC1)C(=O)NC(Cc1ccccc1)C(O)C(Cc1ccccc1)NC(=O)C(NC(=O)OCc1ccccc1)C(C)C` (configuration not stated) gave a melting point of 159 to 161 °C.

`COC(=O)c1cccc(CNC(=O)OC(C)(C)C)c1O` returned a melting point of 95 to 96 °C.

Take `COC(=O)C1=C(C)NC(C)=C(c2nnco2)C1c1cccc(Cl)c1Cl` (configuration not stated): the melting point was 225 to 229 °C.

Regarding `CCc1ccc(-c2ccc(C(=O)c3ccccc3)cc2)cc1`, the melting point is 106 to 108 °C.

Consider `CCOC(=O)N1CCN(c2nc3cccccc-3n2)CC1`, for which the melting point is 136 to 138 °C.

As for `O=c1ccn(CCO)c(Cc2ccccc2)c1O`, the melting point lay within 228 to 230 °C.

`Cc1c(-c2cn(C)c(=O)c(Nc3ccc(C4C(=O)N(C)CCN4C(=O)OC(C)(C)C)cc3)n2)cccc1N1Cc2cc(C(C)(C)C)sc2C1=O` (configuration not stated) returned a melting point of 120 to 123 °C.

`CCOCc1nc2c(N)nc3cc(OCc4ccc(C)cc4)ccc3c2n1CC(C)C` yielded a melting point of 209 to 210 °C.

As to `O=C(O)c1cn(-c2ccc(F)cc2)c2c(F)c(N3Cc4cccc(Cl)c4C3)c(F)cc2c1=O`, the melting point fell in the range of 283 to 291 °C.

Consider `Nc1nc2c(ncn2[C@H]2CC[C@@H](CO)C2)c(=O)[nH]1`, for which the melting point was found to be 269 °C.

In the case of `Cc1nc(NCC(C)C)nc(N2CCc3ccccc3C2C)c1C` (configuration not stated), the melting point was in the range of 93 to 95 °C.

As for `COC(=O)COc1cccc2c(CCBr)coc12`, the melting point was in the range of 58 to 59 °C.

Compound `Cn1c2cc(Cl)cc(Cl)c2c2cc(C(=O)O)sc21` came in with a melting point of 278 to 281 °C.

Regarding `COc1ccc(Cc2cc(I)ccc2OC)cn1`, the melting point was 68 to 70 °C.

Take `NS(=O)(=O)c1ccc(-n2nc(CF)cc2-c2ccccc2)cc1`: the melting point was in the range of 162 to 163 °C.

Regarding `COc1ccc(OC)c2c1C=C(C(=O)O)CC2`, the melting point is < 220 °C.

Compound `CC(C#N)(COc1ccc(Cl)cc1)NS(=O)(=O)Cc1ccccc1` (configuration not stated) yielded a melting point of 120 to 121 °C.

On to `CCOC(=O)c1cccc(C(=O)CC)c1OCCN(CC)CC`, for which the melting point is 103 to 105 °C.

`CC1=CC(OC(=O)c2ccc([N+](=O)[O-])cc2)C(O)C(C)(C)CC1=O` (configuration not stated) had a melting point of 151 to 152 °C.

With `CCC(C)(C)Nc1c(NCc2cc(Cl)ccc2Cl)c(=O)c1=O`, the melting point was 195 to 196 °C.

As to `CCCCCc1ccc(-c2c(C(C)C)ccc(CO)c2C(C)C)nc1`, the melting point fell in the range of 81 to 82 °C.

Consider `Nc1ncnc2c1c(-c1cc(O)cc(F)c1)nn2Cc1oc2ccccc2c(=O)c1-c1ccccc1`, for which the melting point fell in the range of 260 to 262 °C.

Compound `CC(Oc1ccc([N+](=O)[O-])cc1)c1nnc(N=C=O)s1` (configuration not stated) yielded a melting point of 215 to 221 °C.

Compound `CCO[C@@H]1C[C@@H](C(=O)NC)N(S(=O)(=O)c2ccc(Cl)c(CBr)c2Cl)C1` yielded a melting point of 122 °C.

In turn, `CC(CO)n1nnc2cc3c(=O)n(C(C)Cn4ncnn4)nnc3cc2c1=O` (configuration not stated) registered a melting point of 153 to 154 °C.

For the compound `CCOC(=O)CCNC(=O)c1oc2cc(-c3ccc(Cn4c(C)nc5ccccc54)cc3)ccc2c1C`, the melting point lay within 196 to 197 °C.

Consider `COc1ccc2c(c1)C(c1ccc(N)cc1)=NN=C(C)C2`, for which the melting point was 136 to 138 °C.

Regarding `COc1ccc2cc(CBr)ccc2c1Br`, the melting point lay in the range of 92 to 94 °C.

With `COc1ccc(CN(C(=O)C2CCCc3c(O)cccc32)c2ccc(C(C)C)cc2)c(OC)n1` (configuration not stated), the melting point stood at 190 °C.

The compound `CCNc1ccc2[nH]cc(C3CCN(C)CC3)c2n1` displayed a melting point of 132 to 134 °C.

For the compound `O=C(C=C1CCCN1)c1ccccc1`, the melting point was 115 to 116 °C.

`COCCOC(=O)C1=C(C(F)F)NC(C)=C(C(=O)OC(C)C)C1c1cccc(Cl)c1Cl` (configuration not stated) returned a melting point of 127 to 128 °C.

`CC(C)(C)OC(=O)N1CC(CC=O)C1` displayed a melting point of 52 to 54 °C.

For the compound `O=C(c1ccc(Cl)cc1)c1sc2cc(O)ccc2c1-c1ccccc1`, the melting point came to 222 °C.

Take `CC(C)c1nc2ccc(C=O)cc2nc1C(C)C`: the melting point fell in the range of 53 to 55 °C.

For `COC(C)(C)O[C@H]1C(=O)N[C@H]1c1ccccc1`, the melting point lay in the range of 136 to 137 °C.

For `COc1cc(OCc2cccnc2)ccc1/C=C/c1cc(/C=C/c2cccc3[nH]ccc23)n[nH]1`, the melting point was in the range of 109 to 114 °C.

`CCCn1c(COC)nc2c(N)nc3ccc(OCC4CCCN(C)C4)cc3c21` (configuration not stated) registered a melting point of 194 to 196 °C.

Regarding `CCOC(=O)C1CC(=C2CCN(c3ccccc3)C2=O)c2ccc(Cl)cc2N1` (configuration not stated), the melting point fell in the range of 160 to 162 °C.

`c1nc(Nc2ccc3[nH]ccc3c2)c2sc(-c3ccsc3)cc2n1` had a melting point of 178 to 189 °C.

For the compound `Cc1ccccc1Cc1cccc(-c2ncc3c(n2)CCOC3)n1`, the melting point was in the range of 132 to 133 °C.

Turning to `Fc1ccc(CC2CCN(CCOc3ccc4c(c3)=NC(=S)N=4)CC2)cc1`, the melting point is 278 to 280 °C.

`Cc1ccccc1OCC(=O)Nc1c(C)cccc1C(=O)O` showed a melting point of 133 to 136 °C.

In turn, `CC(O)Cn1c(COC(N)=O)nc(C(C)C)c1Sc1cc(Cl)cc(Cl)c1` (configuration not stated) returned a melting point of 82 °C.

On to `COC(=O)CN1CSC=C(N2C(=O)c3ccccc3C2=O)C1=O`, for which the melting point is 181 to 183 °C.

In turn, `NS(=O)(=O)c1ccc(-n2nc(CCCNC(=O)Nc3ccccc3)cc2-c2ccccc2)cc1` gave a melting point of 171 to 172 °C.

Take `CCOC(OCC)c1nc(N)nc(N)c1-c1cccc(Cl)c1Cl`: the melting point lay in the range of 214 to 217 °C.

The compound `c1ccc(CSc2ncccc2-c2ccccc2)cc1` showed a melting point of 99 to 100 °C.

`Cc1ccc(-c2ccc3c(c2)C=C(C(=O)O)CO3)cc1`: the melting point was in the range of 236 to 237 °C.

`CC(CC(=O)O)CC(=O)c1ccc(N2CCC(c3ccccc3)CC2)cc1` (configuration not stated) came in with a melting point of 134 to 135 °C.

In the case of `NS(=O)(=O)c1ccc(-c2noc(-c3cnn4c(C5CC5)cc(-c5ccc(Cl)cc5)nc34)n2)cc1`, the melting point is 260 °C.

The compound `COc1ccc(C2=NN(c3ccccc3)C(=O)[C@H]3CC=CC[C@@H]23)cc1Cl` (relative stereo) returned a melting point of 151 to 152 °C.

Compound `Cc1cc(-n2cc(-c3ccc(S(C)=O)cc3)nc2C)cc2ccc(=O)[nH]c12` (configuration not stated) showed a melting point of 313 to 315 °C.

`COc1ccc(C2CCN(CCCCc3ccccc3)CC2)cc1` displayed a melting point of 48 to 50 °C.

The compound `CC(CCC(=O)O)C1CCC2C3C(=O)CC4CC(OC5CCCCO5)CCC4(C)C3CCC12C` (configuration not stated) came in with a melting point of 157 to 159 °C.

In turn, `CC1(C2CCCC2)Cc2cc(OCCCCC(=O)O)c(Cl)c(Cl)c2C1=O` (configuration not stated) returned a melting point of 106 to 108 °C.

Turning to `Cn1ncnc1COc1nn2c(-c3ccccc3)nnc2cc1-c1ccco1`, the melting point fell in the range of 263 to 265 °C.
